Target: αvβ6 integrin (Homo sapiens, UniProt P06756+P18564)
Assay: Influence of soluble substances on the binding of biotinylated fibronectin to immobilised αvβ6 (ELISA-type competition binding test)
Settings: competition with biotinylated fibronectin at immobilised αvβ6; standard employed in each experiment
Experimental: The prepared peptides according to the invention together with competing fibronectin were bound in solution to the immobilised αvβ6 receptor, and the Q value as a measure of the selectivity of the binding of the peptide to be tested to αvβ6 was determined. The Q value is calculated from the quotient of the IC50 values of test peptide and a standard. The standard used was the linear Ac-RTDLDSLR-NH2(SEQ ID NO: 22) (WO01/00660; Pytela et al., 1986, Science 231, 1559). The binding test was carried out in detail as follows:
αvβ6 was immobilised on microtitre plates by dilution of the protein solution in TBS++ and subsequent incubation overnight at 4° C. (100 μl/well). Non-specific binding sites were blocked by incubation (2 h; 37° C.) with 3% (w/v) BSA in TBS++ (200 μl/well). Excess BSA was removed by washing three times with TBSA++. […]
Unbound fibronectin and peptides were removed by washing three times with TBSA++. The bound fibronectin was detected by incubation (1 h; 37° C.) with an alkaline phosphatase-coupled antibiotin antibody (1:20000 in TBSA++; 100 μl/well). […] The colour intensity was determined at 405 nm in the ELISA measuring instrument and adjusted against a blank value. […]
IC50 values for the peptides tested were read off from a graph, and the Q value of the peptide was determined therefrom together with the IC50 of the standard.

IC50: < 100 nM
Substance: Ac-RTDLDSLR-NH2 [AC-RTDLDSLR-NH2, Ac-RTDLDSLR-NH2]

From US7759302B2, “Peptidic sulfonamides” (Merck Patent GmbH, priority 2003, dated 2010)
